In brackets after ≈: the same amount, converted by molar mass.
Legend:
Bacillus subtilis = test: Antibacterial activity against Bacillus subtilis after 18 hrs by macrodilution method; assay type: functional
Staphylococcus aureus [1] = test: Antibacterial activity against Staphylococcus aureus after 18 hrs by macrodilution method; assay type: functional
Pseudomonas aeruginosa = test: Antibacterial activity against Pseudomonas aeruginosa after 18 hrs by macrodilution method; assay type: functional
Staphylococcus aureus [2] = test: Antibacterial activity against Staphylococcus aureus; assay type: functional, organism-based

COC(=O)CC[C@@H](C)[C@H]1CC[C@H]2[C@@H]3CC[C@@H]4C/C(=N/NC(=S)Nc5ccc(Br)cc5)CC[C@]4(C)[C@H]3CC(=O)[C@]12C
MIC (Bacillus subtilis): > 128 µg/mL | MIC (Staphylococcus aureus [1]): > 128 µg/mL | MIC (Pseudomonas aeruginosa): 2 µg/mL (≈ 3.17 µM)

COC(=O)CC[C@@H](C)[C@H]1CC[C@H]2[C@@H]3CC[C@@H]4C/C(=N/NC(=S)Nc5ccc(OC)cc5)CC[C@]4(C)[C@H]3CC(=O)[C@]12C
MIC (Bacillus subtilis): > 128 µg/mL | MIC (Staphylococcus aureus [1]): > 128 µg/mL | MIC (Pseudomonas aeruginosa): 2 µg/mL (≈ 3.44 µM)

COC(=O)CC[C@@H](C)[C@H]1CC[C@H]2[C@@H]3C(=O)C[C@@H]4C/C(=N/NC(=S)Nc5ccc(OC)cc5)CC[C@]4(C)[C@H]3CC[C@]12C
MIC (Bacillus subtilis): 32 µg/mL (≈ 55 µM) | MIC (Staphylococcus aureus [1]): 128 µg/mL (≈ 220 µM) | MIC (Pseudomonas aeruginosa): 128 µg/mL (≈ 220 µM)

COC(=O)CC[C@@H](C)[C@H]1CC[C@H]2[C@@H]3C(=O)C[C@@H]4C/C(=N/NC(=S)Nc5ccc(F)cc5)CC[C@]4(C)[C@H]3CC[C@]12C
MIC (Bacillus subtilis): 128 µg/mL (≈ 225 µM) | MIC (Staphylococcus aureus [1]): 128 µg/mL (≈ 225 µM) | MIC (Pseudomonas aeruginosa): 128 µg/mL (≈ 225 µM)

COC(=O)CC[C@@H](C)[C@H]1CC[C@H]2[C@@H]3C(=O)C[C@@H]4C/C(=N/NC(=S)Nc5ccc(C)cc5)CC[C@]4(C)[C@H]3CC[C@]12C
MIC (Bacillus subtilis): 32 µg/mL (≈ 56.6 µM) | MIC (Staphylococcus aureus [1]): > 128 µg/mL | MIC (Pseudomonas aeruginosa): 16 µg/mL (≈ 28.3 µM)

COC(=O)CC[C@@H](C)[C@H]1CC[C@H]2[C@@H]3C(=O)C[C@@H]4C/C(=N/NC(=S)Nc5cccc6ccccc56)CC[C@]4(C)[C@H]3CC[C@]12C
MIC (Bacillus subtilis): 32 µg/mL (≈ 53.2 µM) | MIC (Staphylococcus aureus [1]): > 128 µg/mL | MIC (Pseudomonas aeruginosa): 16 µg/mL (≈ 26.6 µM)

COC(=O)CC[C@@H](C)[C@H]1CC[C@H]2[C@@H]3CC[C@@H]4C/C(=N/NC(=S)Nc5ccccc5)CC[C@]4(C)[C@H]3CC(=O)[C@]12C
MIC (Bacillus subtilis): 64 µg/mL (≈ 116 µM) | MIC (Staphylococcus aureus [1]): > 128 µg/mL | MIC (Pseudomonas aeruginosa): 32 µg/mL (≈ 58 µM)

COC(=O)CC[C@@H](C)[C@H]1CC[C@H]2[C@@H]3CC[C@@H]4C/C(=N/NC(=S)Nc5ccc(F)cc5)CC[C@]4(C)[C@H]3CC(=O)[C@]12C
MIC (Bacillus subtilis): > 128 µg/mL | MIC (Staphylococcus aureus [1]): > 128 µg/mL | MIC (Pseudomonas aeruginosa): 4 µg/mL (≈ 7.02 µM)

COC(=O)CC[C@@H](C)[C@H]1CC[C@H]2[C@@H]3C/C(=N/NC(=S)Nc4ccc(OC)cc4)[C@@H]4C/C(=N/NC(=S)Nc5ccc(OC)cc5)CC[C@]4(C)[C@H]3CC[C@]12C
MIC (Bacillus subtilis): 128 µg/mL (≈ 168 µM) | MIC (Staphylococcus aureus [1]): 32 µg/mL (≈ 42 µM) | MIC (Pseudomonas aeruginosa): 4 µg/mL (≈ 5.26 µM)

COC(=O)CC[C@@H](C)[C@H]1CC[C@H]2[C@@H]3C/C(=N/NC(=S)Nc4ccc(C)cc4)[C@@H]4C/C(=N/NC(=S)Nc5ccc(C)cc5)CC[C@]4(C)[C@H]3CC[C@]12C
MIC (Bacillus subtilis): 128 µg/mL (≈ 176 µM) | MIC (Staphylococcus aureus [1]): 128 µg/mL (≈ 176 µM) | MIC (Pseudomonas aeruginosa): 4 µg/mL (≈ 5.49 µM)

COC(=O)CC[C@@H](C)[C@H]1CC[C@H]2[C@@H]3C/C(=N/NC(=S)Nc4ccc(Br)cc4)[C@@H]4C/C(=N/NC(=S)Nc5ccc(Br)cc5)CC[C@]4(C)[C@H]3CC[C@]12C
MIC (Bacillus subtilis): 128 µg/mL (≈ 149 µM) | MIC (Staphylococcus aureus [1]): 64 µg/mL (≈ 74.5 µM) | MIC (Pseudomonas aeruginosa): 2 µg/mL (≈ 2.33 µM)

COC(=O)CC[C@@H](C)[C@H]1CC[C@H]2[C@@H]3C/C(=N/NC(=S)Nc4cccc(F)c4)[C@@H]4C/C(=N/NC(=S)Nc5cccc(F)c5)CC[C@]4(C)[C@H]3CC[C@]12C
MIC (Bacillus subtilis): 128 µg/mL (≈ 174 µM) | MIC (Staphylococcus aureus [1]): 32 µg/mL (≈ 43.4 µM) | MIC (Pseudomonas aeruginosa): 128 µg/mL (≈ 174 µM)

COC(=O)CC[C@@H](C)[C@H]1CC[C@H]2[C@@H]3/C(=N/NC(=S)Nc4ccccc4)C[C@@H]4C/C(=N/NC(=S)Nc5ccccc5)CC[C@]4(C)[C@H]3CC[C@]12C
MIC (Bacillus subtilis): 128 µg/mL (≈ 183 µM) | MIC (Staphylococcus aureus [1]): > 128 µg/mL | MIC (Pseudomonas aeruginosa): 8 µg/mL (≈ 11.4 µM)

COC(=O)CC[C@@H](C)[C@H]1CC[C@H]2[C@@H]3/C(=N/NC(=S)Nc4ccc(OC)cc4)C[C@@H]4C/C(=N/NC(=S)Nc5ccc(OC)cc5)CC[C@]4(C)[C@H]3CC[C@]12C
MIC (Bacillus subtilis): > 128 µg/mL | IC50 (Staphylococcus aureus [2]): 3.25 µg/mL (≈ 4.27 µM) | MIC (Staphylococcus aureus [1]): 64 µg/mL (≈ 84.1 µM) | MIC (Pseudomonas aeruginosa): 4 µg/mL (≈ 5.26 µM)

COC(=O)CC[C@@H](C)[C@H]1CC[C@H]2[C@@H]3/C(=N/NC(=S)Nc4ccc(Br)cc4)C[C@@H]4C/C(=N/NC(=S)Nc5ccc(Br)cc5)CC[C@]4(C)[C@H]3CC[C@]12C
MIC (Bacillus subtilis): > 128 µg/mL | IC50 (Staphylococcus aureus [2]): 2.85 µg/mL (≈ 3.32 µM) | MIC (Staphylococcus aureus [1]): 32 µg/mL (≈ 37.3 µM) | MIC (Pseudomonas aeruginosa): 16 µg/mL (≈ 18.6 µM)

COC(=O)CC[C@@H](C)[C@H]1CC[C@H]2[C@@H]3/C(=N/NC(=S)Nc4cccc(F)c4)C[C@@H]4C/C(=N/NC(=S)Nc5cccc(F)c5)CC[C@]4(C)[C@H]3CC[C@]12C
MIC (Bacillus subtilis): 8 µg/mL (≈ 10.9 µM) | IC50 (Staphylococcus aureus [2]): 1.02 µg/mL (≈ 1.38 µM) | MIC (Staphylococcus aureus [1]): 8 µg/mL (≈ 10.9 µM) | MIC (Pseudomonas aeruginosa): 32 µg/mL (≈ 43.4 µM)

CC1(C)S[C@@H]2[C@H](NC(=O)[C@H](N)c3ccc(O)cc3)C(=O)N2[C@H]1C(=O)O [AMOXICILLIN]
MIC (Bacillus subtilis): 16 µg/mL (≈ 43.8 µM) | IC50 (Staphylococcus aureus [2]): 2.84 µg/mL (≈ 7.77 µM) | MIC (Staphylococcus aureus [1]): 32 µg/mL (≈ 87.6 µM) | MIC (Pseudomonas aeruginosa): 2 µg/mL (≈ 5.47 µM)

Reference: ChEMBL document CHEMBL2203107, “Microwave-assisted synthesis and in vitro antibacterial activity of novel steroidal thiosemicarbazone derivatives” (Bioorg Med Chem Lett, 2012)
